Source: ChEMBL document CHEMBL4017548, “Molecular Hybridization of Potent and Selective γ-Hydroxybutyric Acid (GHB) Ligands: Design, Synthesis, Binding Studies, and Molecular Modeling of Novel 3-Hydroxycyclopent-1-enecarboxylic Acid (HOCPCA) and trans-γ-Hydroxycrotonic Acid (T-HCA) Analogs” (J Med Chem, 2017)

Assay: Displacement of [3H]NCS-382 from GHB binding site in Sprague-Dawley rat brain synaptosomal membranes after 1 hr by scintillation counting method

With O=C(O)/C=C/C(O)c1ccc(CCc2ccccc2)cc1 (racemic) the Ki was 0.042 µM and the pKi was 7.39.

Work on O=C(O)C1=C[C@H](O)CC1 yielded a Ki of 0.11 µM.

Work on O=C(O)[C@@H]1CC[C@@](O)(c2ccccc2)C1 yielded a Ki of 53 µM and a pKi of 4.28.

With Cc1ccc(C2=C(C(=O)O)CCC2O)cc1 (stereo not drawn) the Ki was 157 µM and the pKi was 3.81.

Compound O=C(O)/C=C/C(O)c1ccc(OCc2ccccc2)cc1 (stereo not drawn) has a Ki of 0.043 µM and a pKi of 7.43.

O=C(O)C#CC1(O)CCCCC1 showed a Ki of 7.7 µM and a pKi of 5.12.

O=C(O)C#CC(O)c1ccc(OCc2ccccc2)cc1 (racemic) showed a Ki of 1.6 µM and a pKi of 5.8.

Compound O=C(O)C#CCO has a Ki of 4.3 µM and a pKi of 5.5.

With O=C(O)C1=C[C@@H](O)CC1 the Ki was 1.4 µM.

In the case of O=C(O)C1CC(O)C1 (stereo not drawn), the Ki is reported as 70 µM and the pKi is reported as 4.16.

O=C(O)C#CC1(O)CCCC1 gave a Ki of 2.7 µM and a pKi of 5.57.

CC1=C(C(=O)O)CCC1O (stereo not drawn) gave a Ki of 80 µM and a pKi of 4.1.

With O=C(O)C1CCC(O)C1 (stereo not drawn) the Ki was 20 µM and the pKi was 4.71.

In the case of O=C(O)C1=C(Cc2ccccc2)C(O)CC1 (stereo not drawn), the Ki is reported as 38 µM and the pKi is reported as 4.43.

O=C(O)/C=C/C(O)c1ccc(Cc2ccccc2)cc1 (single isomer, unassigned; (+)) showed a Ki of 0.03 µM and a pKi of 7.47.

COc1cccc(CC2=C(C(=O)O)CCC2O)c1 (stereo not drawn) gave a Ki of 46 µM and a pKi of 4.43.

O=C(O)[C@]12CC[C@@H](O)[C@H]1C2 (relative stereo) gave a Ki of over 100 µM.

For O=C(O)C1=CC(c2ccc(OCc3ccccc3)cc2)CC1 (stereo not drawn), the Ki was 1.6 µM and the pKi was 5.77.

O=C(O)C1=CCCC1 showed a Ki of 31 µM and a pKi of 4.51.

Compound CCC1=C(C(=O)O)CCC1O (stereo not drawn) has a Ki of over 300 µM.

O=C(O)/C=C/C(O)c1ccc(-c2ccccc2)cc1 (racemic) gave a Ki of 0.075 µM and a pKi of 7.14.

O=C(O)/C=C/C(O)c1ccc(Cc2ccccc2)cc1 (racemic) gave a Ki of 0.042 µM and a pKi of 7.38.

C=CCC1=C(C(=O)O)CCC1O (stereo not drawn) gave a Ki of over 300 µM.

O=C(O)C1=CC(c2ccccc2)CC1 (stereo not drawn) gave a Ki of 16 µM and a pKi of 4.8.

For O=C(O)C1=CC(c2ccccc2O)CC1 (stereo not drawn), the Ki was 4.6 µM and the pKi was 5.34.

O=C(O)[C@@H]1CCC[C@@H](O)C1 (relative stereo) showed a Ki of 28 µM and a pKi of 4.55.

In the case of O=C(O)C#CC1(O)CCC1, the Ki is reported as 1.6 µM and the pKi is reported as 5.78.

Compound O=C(O)/C=C/C1(O)CCCC1 has a Ki of 3.1 µM and a pKi of 5.51.

O=C(O)/C=C/C1(O)CCCCC1 showed a Ki of 4.3 µM and a pKi of 5.37.

O=C(O)C1=CC(O)CC1 (stereo not drawn) gave a Ki of 0.13 to 0.16 µM and a pKi of 6.89.

With O=C(O)CCCO [OXYBATE] the Ki was 3.6 µM and the pKi was 5.44.

O=C(O)C1=C(c2ccc(Cl)cc2)C(O)CC1 (stereo not drawn) showed a Ki of 70 µM and a pKi of 4.16.

In the case of O=C(O)C1=C(c2ccc(Cl)c(Cl)c2)C(O)CC1 (stereo not drawn), the Ki is reported as 62 µM and the pKi is reported as 4.21.

COc1ccc(C2=C(C(=O)O)CCC2O)cc1 (stereo not drawn) showed a Ki of over 300 µM.

O=C(O)/C=C/C(O)c1ccc(Cc2ccccc2)cc1 (stereo in doubt; (-)-9e) showed a Ki of 1.16 µM and a pKi of 5.97.

O=C(O)/C=C/C1(O)CCC1 gave a Ki of 3.5 µM and a pKi of 5.47.

For O=C(O)/C=C/C(O)c1ccc(OCc2ccc(Br)cc2)cc1 (stereo not drawn), the Ki was 0.023 µM and the pKi was 7.64.

For O=C(O)[C@@H]1CC[C@@](O)(c2ccc(-c3ccccc3)cc2)C1, the Ki was 0.51 µM and the pKi was 6.29.

With O=C(O)C1=C(c2ccccc2)C(O)CC1 (stereo not drawn) the Ki was 48 µM and the pKi was 4.32.

O=C(O)[C@H]1CCC[C@@H](O)C1 (relative stereo) gave a Ki of 35 µM and a pKi of 4.45.

Compound O=C(O)C#CC(O)Cc1ccccc1 (racemic) has a Ki of 3.5 µM and a pKi of 5.45.

With O=C(O)C1=CC(c2ccc(-c3ccccc3)cc2)CC1 (stereo not drawn) the Ki was 3.2 µM and the pKi was 5.49.
